Experimental data as given in patent US9284312B2, “N-methyl tetrahydroquinoline M1 receptor positive allosteric modulators” (Merck Sharp & Dohme Corp., priority 2011, dated 2016).

Biological target: T1, acetylcholine muscarinic M1 receptor (Homo sapiens, UniProt P11229)
T1 construct: expressed in transfected cells; host or cells: CHOnfat (CHO cells, Geneticin-selected) expressing hM1
T1 sequence (P11229 1-460): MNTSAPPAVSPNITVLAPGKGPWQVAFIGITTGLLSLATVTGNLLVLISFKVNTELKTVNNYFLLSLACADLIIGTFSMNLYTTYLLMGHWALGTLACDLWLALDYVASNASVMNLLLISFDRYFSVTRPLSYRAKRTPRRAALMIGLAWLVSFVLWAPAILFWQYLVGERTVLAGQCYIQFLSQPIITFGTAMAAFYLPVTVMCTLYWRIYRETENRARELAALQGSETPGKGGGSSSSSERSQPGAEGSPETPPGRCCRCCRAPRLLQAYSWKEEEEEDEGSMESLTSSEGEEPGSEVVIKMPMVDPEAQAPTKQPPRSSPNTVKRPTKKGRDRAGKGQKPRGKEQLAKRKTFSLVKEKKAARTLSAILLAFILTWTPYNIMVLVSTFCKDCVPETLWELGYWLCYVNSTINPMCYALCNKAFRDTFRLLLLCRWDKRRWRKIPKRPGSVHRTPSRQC
Test: muscarinic FLIPR assay: intracellular calcium in CHOnfat/hM1 cells with EC20 acetylcholine (positive allosteric modulation)
Assay type: cell-based
Conditions: not given
Description: The assay studies the effect of one or several concentrations of test compounds on basal or acetylcholine-stimulated Ca^2+ levels using FLIPR.
Compounds are prepared and subjected to a preincubation period of 4 min. Thereafter, a single EC20 concentration of acetylcholine is added to each well (3 nM final). The intracellular Ca^2+ level of each sample is measured and compared to an acetylcholine control to determine any modulatory activity.
Cells: CHOnfat/hM1, hM2, hM3 or hM4 cells are plated 24 hr before the assay at a density of 18,000 cells/well (100 μL) in a 384 well plate. CHOnfat/hM1 and CHOnfat/hM3 Growth Medium: 90% DMEM (Hi Glucose); 10% HI FBS; 2 mM L-glutamine; 0.1 mM NEAA; Pen-Strep; and 1 mg/ml Geneticin, are added. For M2Gqi5CHOnfat and M4Gqi5CHOnfat cells, an additional 600 ug/ml hygromycin is added.
Equipment: 384 well plate, 120 μL addition plate; 96-well Whatman 2 ml Uniplate Incubator, 37° C., 5% CO2; Skatron EMBLA-384 Plate Washer; Multimek Pipetting System; Genesis Freedom 200 System; Mosquito System; Temo Nanoliter Pipetting System; and FLIPR^384 Fluorometric Imaging Plate Reader System are used.
Buffers. Assay Buffer: Hanks Balanced Salt Solution, with 20 mM Hepes, 2.5 mM Probenecid (Sigma P-8761) first dissolved in 1 N NaOH, 1% Bovine Serum Albumin (Sigma A-9647). Dye Loading Buffer: Assay Buffer plus 1% Fetal Bovine Serum and Fluo-4AM/Pluronic Acid Mixture. 2 mM Fluo-4AM ester stock in DMSO (Molecular Probes F-14202) Concentration of 2 μM in buffer for a final concentration of […] in Assay. 20% Pluronic Acid Solution stock, with concentration of 0.04% in Buffer, 0.02% in Assay.
65 μL of 2 mM Fluo-4AM are mixed with 130 μL of 20% Pluronic Acid. The resulting solution and 650 μL FBS is added to the assay buffer for a total volume of 65 mL. Positive Controls: 4-Br-A23187: 10 mM in DMSO; final concentration 10 μM. Acetylcholine: 10 mM in water, working stock at both 20 μM and 30 μM in assay buffer, final concentration of 10 μM. This is used to check the maximum stimulation of the CHOK1/hM1 cells. 20 μM (2×) acetylcholine is added in the preincubation part of the assay, and the 30 μM (3×) stock is added in the second part. (EC20)Acetylcholine: 10 mM in water, working stock of 9 nM (3×), and final concentration in assay is 3 nM. This is used after the preincubation with test compounds. Addition of the EC20 Acetylcholine to each well with a test compound will ascertain any modulator activity. 24 wells contain 3 nM Acetylcholine alone as a control.
Determining Activity of Putative Compounds:
Screening Plate: Compounds are titrated in 96-well plates (columns 2-11), 100% DMSO, started at a concentration of 15 mM (150× stock concentration), and 3-fold serial dilutions using Genesis Freedom200 System. Four 96-well plates are combined into a 384-well plate using Mosquito Nanoliter Pipetting System by transferring 1 μl of serial diluted compounds to each well, and 1 mM acetylcholine (100× stock concentration) were added as a control. Using Temo, 49 μl assay buffer is added to each well of the 384-well plate right before assay.
In a 96-well Whatman 2 ml Uniplate, 9 nM Acetylcholine (3×) is pipetted into wells corresponding to the screening compounds, and into control wells. The 30 μM acetylcholine control (3×) is added into control wells, and the 3× agonist plate is transferred into a 384 well plate.
Cells are washed three times with 100 μL of buffer, leaving 30 μL of buffer in each well. Using Multimek, 30 μL of Dye Loading Buffer is added into each well and incubated at 37° C., 5% CO2 for up to one hr.
After 60 min, the cells are washed three times with 100 μL of buffer, leaving 30 μL of buffer in each well. The cell plate, screening plate, and agonist addition plates are placed on the platform in the FLIPR and the door closed. A signal test to check background fluorescence and basal fluorescence signal is performed. Laser intensity is adjusted if necessary. […]

Structure (SMILES) | EC50
CN(C)C(=O)Oc1ccc(Cc2cc3c(=O)n([C@H]4CCCC[C@@H]4O)cnc3c3c2C=CCN3C)cc1 [Example 8, 4-({3-[(1S,2S)-2-Hydroxycyclohexyl]-10-methyl-4-oxo-3,4,9,10-tetrahydropyrido[3,2-h]quinazolin-6-yl}methyl)phenyl dimethylcarbamate] | 25 nM

Same assay, conditions: CHOnfat/hM1 cells, FLIPR Ca2+, 4 min preincubation, then EC20 acetylcholine (3 nM final); read-out: IP Value (inflection point)

Structure (SMILES) | EC50
COc1ccc(Cc2cc3c(=O)n([C@H]4CCCC[C@@H]4O)cnc3c3c2C=CCN3C)cn1 [Example 4, 3-[(1S,2S)-2-Hydroxycyclohexyl]-6-[(6-methoxypyridin-3-yl)methyl]-10-methyl-9,10-dihydropyrido[3,2-h]quinazolin-4(3H)-one] | 14 nM
CN1CC=Cc2c(Cc3ccc(-c4cnn(C)c4)nc3)cc3c(=O)n([C@H]4CCCC[C@@H]4O)cnc3c21 [Example 6, 3-[(1S,2S)-2-Hydroxycyclohexyl]-10-methyl-6-{[6-(1-methyl-1H-pyrazol-4-yl)pyridin-3-yl]methyl}-9,10-dihydropyrido[3,2-h]quinazolin-4(3H)-one] | 2.6 nM
CN1CC=Cc2c(Cc3cccnc3)cc3c(=O)n([C@H]4CCCC[C@@H]4O)cnc3c21 [Example 5, 3-[(1S,2S)-2-Hydroxycyclohexyl]-10-methyl-6-(pyridine-3-ylmethyl)-9,10-dihydropyrido[3,2-h]quinazolin-4(3H)-one] | 21 nM
CN1CC=Cc2c(Cc3ccc(Cl)nc3)cc3c(=O)n([C@H]4CCCC[C@@H]4O)cnc3c21 [Example 1, 6-[(6-Chloropyridin-3-yl)methyl]-3-[(1S,2S)-2-hydroxycyclohexyl]-10-methyl-9,10-dihydropyrido[3,2-h]quinazolin-4(3H)-one] | 3 nM
CN1CC=Cc2c(Cc3ccc(Cl)nc3)cc3c(=O)n([C@H]4CCOC[C@@H]4O)cnc3c21 [Example 2, 6-[(6-Chloropyridin-3-yl)methyl]-3-[(3R,4S)-3-hydroxytetrahydro-2H-pyran-4-yl]-10-methyl-9,10-dihydropyrido[3,2-h]quinazolin-4(3H)-one] | 4.3 nM
CSc1ccc(Cc2cc3c(=O)n([C@H]4CCCC[C@@H]4O)cnc3c3c2C=CCN3C)cn1 [Example 3, 3-[(1S,2S)-2-Hydroxycyclohexyl]-10-methyl-6-{[-(methylthio)-pyridin-3-yl]methyl}-9,10-dihydropyrido[3,2-h]quinazolin-4(3H)-one] | 4.2 nM
CN1CC=Cc2c(Cc3ccc(O)cc3)cc3c(=O)n([C@H]4CCCC[C@@H]4O)cnc3c21 [Example 7, 6-(4-Hydroxybenzyl)-3-[(1S,2S)-2-hydroxycyclohexyl]-10-methyl-9,10-dihydropyrido[3,2-h]quinazolin-4(3H)-one] | 2.6 nM
COc1cc(Cc2cc3c(=O)n([C@H]4CCCC[C@@H]4O)cnc3c3c2C=CCN3C)ccn1 [Example 9, 3-[(1S,2S)-2-Hydroxycyclohexyl]-6-[(2-methoxypyridin-4-yl)methyl]-10-methyl-9,10-dihydropyrido[3,2-h]quinazolin-4(3H)-one] | 5.2 nM

Same assay, conditions: column head 'H Pot.' of the untitled table after Table 1; no unit or method printed; read-out: H Pot.

Structure (SMILES) | EC50
CCN1CC=Cc2c(Cc3ccc(Cl)nc3)cc3c(=O)n([C@H]4CCCC[C@@H]4O)cnc3c21 [Example 46] | 263 nM
